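Assay format: 96-well plates, 48-hour exposure. GI50: concentration for 50% inhibition of growth.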 The source made the active and inactive calls. Cut-off read from the data, not from the text of the source: active = GI50 up to about 1.1 µM and inactive = higher.

Test systems include HCT-15; SK-MEL-5; PC-3; MDA-N; Hs-578T; MCF7; RPMI-8226; NCI-H226; KM12; NCI-H460; HCT-116; ACHN; SF-268; UACC-257; NCI-H23; A498; UO-31; CAKI-1; COLO 205; HOP-92.
Experiment in all cases: NCI-60 cell line screen, 48 h

In the case of `O=C(O)c1cnc2cc(OCc3ccccc3)ccc2c1O`, the GI50 was 17.8 µM in the assay on HCT-15; 17.7 µM (inactive) in the assay with SK-MEL-5; 17.1 µM (inactive) in the assay with PC-3; 17 µM (inactive) in the assay with MDA-N; 20 µM (inactive) in the assay with Hs-578T; 20.1 µM (inactive) in the assay on MCF7. The GI50 was 24.8 µM (inactive) in the assay on RPMI-8226; 18.3 µM (inactive) in the assay on NCI-H226; 18.5 µM (inactive) with KM12; 19.4 µM (inactive) in the assay with NCI-H460; 17.2 µM (inactive) in the assay on HCT-116; 18.5 µM (inactive) with ACHN. For the same compound, the GI50 in the assay on SF-268 is 16 µM (inactive); with UACC-257, 24 µM (inactive); with NCI-H23, 17.9 µM (inactive); with A498, 17.6 µM (inactive); with UO-31, 17.3 µM (inactive); in the assay with CAKI-1 it was 20.2 µM (inactive). Besides, the GI50 in the assay with COLO 205 is 18.2 µM (inactive); with HOP-92, 19.4 µM (inactive).
Regarding `OC/C=C/[C@H](OCc1ccccc1)[C@H](/C=C/CO)OCc1ccccc1`, the GI50 was 34.8 µM in the assay on HCT-15; 27.9 µM (inactive) with SK-MEL-5; 32.3 µM (inactive) with PC-3; 36 µM (inactive) in the assay with MDA-N; 47.4 µM (inactive) in the assay with Hs-578T; 33.1 µM (inactive) in the assay with MCF7. Besides, the GI50 in the assay with RPMI-8226 is 23.1 µM (inactive); in the assay with NCI-H226, > 100 µM (inactive); in the assay on KM12 it was 41.8 µM (inactive); with NCI-H460, 57.8 µM (inactive); in the assay on HCT-116, 35.1 µM (inactive); in the assay with ACHN it was 49.3 µM (inactive). Further, the GI50 with SF-268 was 40.2 µM (inactive); in the assay with UACC-257, 75.2 µM (inactive); in the assay on NCI-H23, 47.8 µM (inactive); in the assay with A498, > 100 µM (inactive); with UO-31, 64.1 µM (inactive); in the assay with CAKI-1, > 100 µM (inactive). Besides, the GI50 is 59.3 µM (inactive) with COLO 205 and 45.4 µM (inactive) in the assay on HOP-92.
As to `CC(Oc1ccccc1)C(=O)NNC(=O)OC(C)(C)C` (stereo not given), the GI50 with HCT-15 was above 100 µM; with SK-MEL-5, > 100 µM (inactive); in the assay with PC-3, > 100 µM (inactive); in the assay on MDA-N it was > 100 µM (inactive); in the assay on Hs-578T, > 100 µM (inactive); with MCF7, > 100 µM (inactive). Further, the GI50 with RPMI-8226, with NCI-H226, in the assay on KM12, in the assay with NCI-H460, with HCT-116 and in the assay with ACHN was > 100 µM (inactive) each time. Besides, the GI50 with SF-268, in the assay on UACC-257, in the assay with NCI-H23, in the assay with A498, with UO-31 and in the assay on CAKI-1 was > 100 µM (inactive) throughout. Further, the GI50 in the assay on COLO 205 and with HOP-92 was > 100 µM (inactive) each time.
`CC(C)(C)c1ccc2c(c1)OCc1n[nH]c(n1)COc1cc(C(C)(C)C)ccc1OCCOCCO2`: the GI50 in the assay with HCT-15 was 4.95 µM; in the assay with SK-MEL-5 it was 2.38 µM (inactive); in the assay with PC-3, 2.41 µM (inactive); with MDA-N it was 3.11 µM (inactive); with Hs-578T, 2.26 µM (inactive); with MCF7 it was 3.31 µM (inactive). For the same compound, the GI50 with RPMI-8226 is 2.99 µM (inactive); with NCI-H226, 2.71 µM (inactive); in the assay with KM12, 3.85 µM (inactive); in the assay with NCI-H460 it was 3.13 µM (inactive); in the assay with HCT-116, 4.31 µM (inactive); in the assay with ACHN, 4.39 µM (inactive). The GI50 is 4.37 µM (inactive) in the assay with SF-268; 2.65 µM (inactive) with UACC-257; 3.09 µM (inactive) in the assay with NCI-H23; 5.64 µM (inactive) with A498; 3.67 µM (inactive) in the assay on UO-31; 4.18 µM (inactive) with CAKI-1. Besides, the results for the GI50 with COLO 205 and with HOP-92 were 2.31 µM (inactive) and 3.88 µM (inactive), respectively.
Take `CC(=O)Oc1c(OC(C)C)cc(=O)n2ccsc12`: the GI50 in the assay on HCT-15 was above 100 µM; in the assay with SK-MEL-5, 62.8 µM (inactive); in the assay with PC-3 it was > 100 µM (inactive); in the assay on MDA-N, > 100 µM (inactive); with Hs-578T, > 100 µM (inactive); in the assay on MCF7 it was 52.6 µM (inactive). Besides, the GI50 in the assay with RPMI-8226 was 29.4 µM (inactive); in the assay on NCI-H226, > 100 µM (inactive); in the assay with KM12, > 100 µM (inactive); in the assay on NCI-H460, > 100 µM (inactive); in the assay with HCT-116 it was > 100 µM (inactive); with ACHN, > 100 µM (inactive). Moreover, the GI50 in the assay on SF-268, in the assay on UACC-257, in the assay on NCI-H23, in the assay on A498, with UO-31 and in the assay on CAKI-1 was > 100 µM (inactive) in each case. Moreover, the results for the GI50 in the assay on COLO 205 and with HOP-92 were 30.1 µM (inactive) and > 100 µM (inactive), respectively.
As for `CCCCCCCCCCCCCCCCCCOCC(COP(=O)([O-])OCC[N+](C)(C)C)OC` (stereo not given) [EDELFOSINE], the GI50 was 3.36 µM with HCT-15; 41.8 µM (inactive) in the assay with SK-MEL-5; 7.19 µM (inactive) in the assay on PC-3; > 69.3 µM (inactive) in the assay on MDA-N; > 100 µM (inactive) in the assay on Hs-578T; 27.5 µM (inactive) with MCF7. The GI50 was 20.9 µM (inactive) in the assay on RPMI-8226; 26.4 µM (inactive) in the assay with NCI-H226; 5.09 µM (inactive) in the assay with KM12; 7.05 µM (inactive) in the assay on NCI-H460; 14.7 µM (inactive) in the assay on HCT-116; > 72.8 µM (inactive) in the assay on ACHN. In addition, the GI50 with SF-268 is 17.2 µM (inactive); with UACC-257, 24 µM (inactive); with NCI-H23, 41.6 µM (inactive); with A498 it was 19.8 µM (inactive); in the assay on UO-31 it was 27.4 µM (inactive); with CAKI-1, 13.1 µM (inactive). Also, the GI50 was 2.65 µM (inactive) in the assay on COLO 205 and 8.75 µM (inactive) with HOP-92.
Turning to `C[N+](C)(N)Cc1csc(-c2ccc(Cl)cc2)n1`, the GI50 in the assay on HCT-15 was above 100 µM; in the assay with SK-MEL-5, 61.5 µM (inactive); in the assay with PC-3, > 100 µM (inactive); in the assay with MDA-N it was > 100 µM (inactive); with Hs-578T, 23.9 µM (inactive); with MCF7, > 100 µM (inactive). The GI50 in the assay on RPMI-8226 was > 100 µM (inactive); in the assay with NCI-H226 it was 48.2 µM (inactive); in the assay on KM12, > 100 µM (inactive); in the assay with NCI-H460, > 100 µM (inactive); with HCT-116 it was > 100 µM (inactive); in the assay on ACHN, > 100 µM (inactive). For the same compound, the GI50 in the assay on SF-268 is 46.5 µM (inactive); in the assay on UACC-257, > 100 µM (inactive); in the assay on NCI-H23 it was > 100 µM (inactive); in the assay with A498, 88.5 µM (inactive); in the assay with UO-31 it was > 100 µM (inactive); in the assay with CAKI-1, > 100 µM (inactive). Moreover, the GI50 in the assay with COLO 205 and in the assay with HOP-92 was > 100 µM (inactive) each time.

(Values after ChEMBL document CHEMBL1201862, “PubChem BioAssay data set” (2004).)
